Reference: patent publication US9024017B2, “Octahydro-cyclopentapyrrolyl antagonists of CCR2” (Janssen Pharmaceutica NV, priority 2012, dated 2015)

Biological target: T1, CCR2 (Homo sapiens, UniProt P41597)
T1 construct: host or cells: THP-1 (human monocytic cell line)
Assay: MCP-1 Receptor Binding Assay in THP-1 Cells
Conditions: read-out: MCP1B_v3 IC50
Description: Compounds of the invention were subjected to various representative biological tests. […] MCP-1 Receptor Binding Assay in THP-1 Cells Human monocytic cell line THP-1 cells were obtained from American Type Culture Collection (Manassas, Va., USA). The THP-1 cells were grown in RPMI-1640 (RPMI: Roswell Park Memorial Institute Medium-cell culture growth media) supplemented with 10% fetal bovine serum in a humidified 5% CO2 atmosphere at 37° C. The cell density was maintained between […].
THP-1 (cells were incubated with 0.5 nM ^125I labeled MCP-1 (Perkin-Elmer Life Sciences, Inc. Boston, Mass.) in the presence of varying concentrations of either unlabeled MCP-1 (R & D Systems, Minneapolis, Minn.) or test compound for 2 hours at 30° C. in a 96 well plate. Cells were then harvested onto a filter plate, dried, and 20 μL of Microscint 20 was added to each well. Plates were counted in a TopCount NXT, Microplate Scintillation & Luminescence Counter (Perkin-Elmer Life Sciences, Inc. Boston, Mass.). Blank values (buffer only) were subtracted from all values and drug treated values were compared to vehicle treated values. 1 μM cold MCP-1 was used for nonspecific binding.

T1 sequence (P41597 whole entry): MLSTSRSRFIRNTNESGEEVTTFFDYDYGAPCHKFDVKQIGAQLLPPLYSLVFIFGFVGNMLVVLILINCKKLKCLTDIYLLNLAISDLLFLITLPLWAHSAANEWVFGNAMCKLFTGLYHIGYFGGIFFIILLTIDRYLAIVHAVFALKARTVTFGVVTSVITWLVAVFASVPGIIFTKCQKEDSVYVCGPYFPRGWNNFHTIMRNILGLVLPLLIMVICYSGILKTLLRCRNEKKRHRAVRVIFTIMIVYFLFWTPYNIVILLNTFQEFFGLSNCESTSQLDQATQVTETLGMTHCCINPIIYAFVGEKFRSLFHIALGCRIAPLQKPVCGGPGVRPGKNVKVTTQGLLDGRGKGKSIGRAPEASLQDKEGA

COC(=O)N1C[C@@H]2C[C@@H](NC3CCOCC3OC)C[C@]2(C(=O)N2CCc3ncc(C(F)(F)F)cc3C2)C1 (relative stereo) [Example 34, (3aR,5R,6aR)-Methyl 5-(((3S*,4S*)-3-methoxytetrahydro-2H-pyran-4-yl)amino)-3a-(3-(trifluoromethyl)-5,6,7,8-tetrahydro-1,6-naphthyridine-6-carbonyl)hexahydrocyclopenta[c]pyrrole-2(1H)-carboxylate]
IC50: 50 nM

CCCOC(=O)N1C[C@@H]2C[C@@H](NC3CCOCC3OC)C[C@]2(C(=O)N2CCc3ncc(C(F)(F)F)cc3C2)C1 (relative stereo) [Example 35, (3aR,5R,6aR)-Propyl 5-(((3S*,4S*)-3-methoxytetrahydro-2H-pyran-4-yl)amino)-3a-(3-(trifluoromethyl)-5,6,7,8-tetrahydro-1,6-naphthyridine-6-carbonyl)hexahydro-cyclopenta[c]pyrrole-2(1H)-carboxylate]
IC50: 60 nM

COC1COCCC1N[C@@H]1C[C@H]2CN(C(=O)OCC(C)(C)C)C[C@@]2(C(=O)N2CCc3ncc(C(F)(F)F)cc3C2)C1 (relative stereo) [Example 36, (3aR,5R,6aR)-Neopentyl 5-(((3S*,4S*)-3-methoxytetrahydro-2H-pyran-4-yl)amino)-3a-(3-(trifluoromethyl)-5,6,7,8-tetrahydro-1,6-naphthyridine-6-carbonyl)hexahydro-cyclopenta[c]pyrrole-2(1H)-carboxylate]
IC50: 560 nM

COC1COCCC1N[C@@H]1C[C@H]2CN(C(=O)Oc3ccccc3)C[C@@]2(C(=O)N2CCc3ncc(C(F)(F)F)cc3C2)C1 (relative stereo) [Example 37, (3aR,5R,6aR)-Phenyl 5-(((3S*,4S*)-3-methoxytetrahydro-2H-pyran-4-yl)amino)-3a-(3-(trifluoromethyl)-5,6,7,8-tetrahydro-1,6-naphthyridine-6-carbonyl)hexahydro-cyclopenta[c]pyrrole-2(1H)-carboxylate]
IC50: 150 nM

C=CCOC(=O)N1C[C@@H]2C[C@@H](NC3CCOCC3OC)C[C@]2(C(=O)N2CCc3ncc(C(F)(F)F)cc3C2)C1 (relative stereo) [Example 38, (3aR,5R,6aR)-Allyl 5-(((3S*,4S*)-3-methoxytetrahydro-2H-pyran-4-yl)amino)-3a-(3-(trifluoromethyl)-5,6,7,8-tetrahydro-1,6-naphthyridine-6-carbonyl)hexahydrocyclopenta[c]pyrrole-2(1H)-carboxylate]
IC50: 40 nM

COC1COCCC1N[C@@H]1C[C@H]2CN(C(=O)OCCN3CCOCC3)C[C@@]2(C(=O)N2CCc3ncc(C(F)(F)F)cc3C2)C1 (relative stereo) [Example 39, (3aR,5R,6aR)-2-Morpholinoethyl 5-(((3S*,4S*)-3-methoxytetrahydro-2H-pyran-4-yl)amino)-3a-(3-(trifluoromethyl)-5,6,7,8-tetrahydro-1,6-naphthyridine-6-carbonyl)hexahydrocyclopenta[c]pyrrole-2(1H)-carboxylate]
IC50: 10 nM

CCN(CC)CCOC(=O)N1C[C@@H]2C[C@@H](NC3CCOCC3OC)C[C@]2(C(=O)N2CCc3ccc(C(F)(F)F)cc3C2)C1 (relative stereo) [Example 41, (3aR,5R,6aR)-2-(Diethylamino)ethyl 5-(((3S*,4S*)-3-methoxytetrahydro-2H-pyran-4-yl)amino)-3a-(7-(trifluoromethyl)-1,2,3,4-tetrahydroisoquinoline-2-carbonyl)hexahydrocyclopenta[c]pyrrole-2(1H)-carboxylate]
IC50: 10 nM

COC1COCCC1N[C@@H]1C[C@H]2CN(C(=O)OCCC3CCOCC3)C[C@@]2(C(=O)N2CCc3ncc(C(F)(F)F)cc3C2)C1 (relative stereo) [Example 42, (3aR,5R,6aR)-2-(Tetrahydro-2H-pyran-4-yl)ethyl 5-(((3S*,4S*)-3-methoxytetrahydro-2H-pyran-4-yl)amino)-3a-(3-(trifluoromethyl)-5,6,7,8-tetrahydro-1,6-naphthyridine-6-carbonyl)hexahydrocyclopenta[c]pyrrole-2(1H)-carboxylate]
IC50: 30 nM
